Where “and” joins values, the source holds several entries; their conditions need not be identical. Equal entries are not always repeated. Structures can show the parent of a compound that is named as a salt. Where two headings read alike, the source gives them in different places.
How the values were obtained:
transporters = system: transporters; design: method as in earlier work; conditions: known transporter targets, per category of inhibited transporters; sodium (co-)transporters; cited from earlier work
hSGLT2 = molecular target: T1, hSGLT2 (Homo sapiens, UniProt P31639); experiment: SGLT2 inhibition assay for validation of screening hits and similar compounds (1‐NBD‐glucose uptake, CHO‐hSGLT2 cells); format: cell-based; design: activity: dose or concentration left out as unconfirmed; conditions: for activity: compound, normalized 1-NBD-glucose uptake, CHO-hSGLT2 cells; for SGLT2/SGLT1 ACTIVITY RATIO 5 uM Mean: ratio of normalized SGLT2 to SGLT1 activity at 5 uM; for remaining activity at 5 µM / remaining activity at 50 µM: 0.5 h, read-out: NORMALIZED SGLT2 ACTIVITY (%)
T1 sequence (P31639 1-672): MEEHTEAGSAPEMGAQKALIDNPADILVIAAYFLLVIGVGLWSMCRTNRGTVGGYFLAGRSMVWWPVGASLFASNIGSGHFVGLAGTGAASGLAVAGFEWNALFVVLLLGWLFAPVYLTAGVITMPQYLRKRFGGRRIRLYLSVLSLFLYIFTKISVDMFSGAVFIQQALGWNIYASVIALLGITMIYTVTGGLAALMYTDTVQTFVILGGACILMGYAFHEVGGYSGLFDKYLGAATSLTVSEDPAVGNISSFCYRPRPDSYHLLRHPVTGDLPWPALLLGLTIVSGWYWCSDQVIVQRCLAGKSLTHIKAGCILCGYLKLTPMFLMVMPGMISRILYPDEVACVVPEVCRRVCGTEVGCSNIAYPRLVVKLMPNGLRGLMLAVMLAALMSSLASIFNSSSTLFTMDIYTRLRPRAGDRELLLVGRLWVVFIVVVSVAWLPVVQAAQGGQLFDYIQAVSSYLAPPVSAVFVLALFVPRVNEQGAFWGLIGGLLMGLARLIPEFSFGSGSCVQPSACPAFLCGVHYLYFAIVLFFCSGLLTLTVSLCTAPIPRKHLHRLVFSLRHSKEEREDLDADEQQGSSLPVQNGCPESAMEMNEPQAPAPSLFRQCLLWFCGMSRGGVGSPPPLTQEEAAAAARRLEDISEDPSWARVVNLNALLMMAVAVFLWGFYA

CHO‐hSGLT1/2 cells = experiment: Cytotoxicity assay (ToxiLight, adenylate kinase leakage into CHO‐SGLT1/2 inhibition assay media); design: CYTOTOXICITY / CY[…], mean / CYTOTOXICITY (% of vehicle control) Mean / CYTOTOXICITY, mean / CY[…] (% of vehicle control) Mean: dose or concentration left out as unconfirmed; conditions: mean; for CY[…] 50 mM: at 50 mM (so in the source);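 as to all read-outs here: bioluminescent read-out of adenylate kinase released from lysed cells into the medium, given relative to DMSO vehicle control defined as 0%, higher meaning more cytolysis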
Procedure: The cytotoxicity of representative SGLT1/2 inhibitors and compounds from the different chemical clusters was tested. Cytotoxicity was determined using the ToxiLight bioassay kit according to the supplier's instructions. This nondestructive assay measures leakage of the enzyme adenylate kinase (AK) from damaged cells into the CHO‐SGLT1/2 inhibition assay media, ie the degree of cytolysis. […] Next, bioluminescence was measured using a FlexStation 3 Multi‐Mode Microplate Reader (Molecular Devices) by 1 second integrated reading. Cytotoxicity was expressed as the percentage of bioluminescence of the DMSO vehicle control which was set at 0%. If applicable, statistical outliers were determined using Grubbs’ test (alpha = 0.05) and excluded for calculation of the mean ± SD.

SGLT1 = molecular target: T2, SGLT1 (Homo sapiens, UniProt P13866); experiment: SGLT1 inhibition assay for validation of screening hits and similar compounds (1‐NBD‐glucose uptake, CHO‐hSGLT1 cells); format: cell-based; design: activity: dose or concentration left out as unconfirmed; conditions: for activity: compound, normalized 1-NBD-glucose uptake, CHO-hSGLT1 cells; for remaining activity at 5 µM / remaining activity at 50 µM: 0.5 h, read-out: NORMALIZED SGLT1 ACTIVITY (%)
T2 sequence (P13866 1-664): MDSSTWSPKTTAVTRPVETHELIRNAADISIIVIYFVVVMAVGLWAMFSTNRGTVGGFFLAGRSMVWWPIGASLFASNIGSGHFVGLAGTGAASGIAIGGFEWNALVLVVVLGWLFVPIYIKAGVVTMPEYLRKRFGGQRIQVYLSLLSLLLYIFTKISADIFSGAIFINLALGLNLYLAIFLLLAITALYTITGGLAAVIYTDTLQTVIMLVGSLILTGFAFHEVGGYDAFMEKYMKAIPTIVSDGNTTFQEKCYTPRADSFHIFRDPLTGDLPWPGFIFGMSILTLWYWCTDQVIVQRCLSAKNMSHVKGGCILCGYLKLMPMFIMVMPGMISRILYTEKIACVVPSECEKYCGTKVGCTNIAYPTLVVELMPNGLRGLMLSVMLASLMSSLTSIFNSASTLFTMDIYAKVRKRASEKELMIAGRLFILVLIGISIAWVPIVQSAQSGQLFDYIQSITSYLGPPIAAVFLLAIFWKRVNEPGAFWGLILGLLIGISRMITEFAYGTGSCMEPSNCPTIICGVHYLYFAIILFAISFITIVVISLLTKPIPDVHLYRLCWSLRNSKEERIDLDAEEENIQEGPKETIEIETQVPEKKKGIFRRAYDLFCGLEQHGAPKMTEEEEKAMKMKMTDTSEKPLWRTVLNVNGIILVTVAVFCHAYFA

| SMILES | activity (hSGLT2; mean) [%] | SGLT2/SGLT1 ACTIVITY RATIO 5 uM Mean (hSGLT2) | CYTOTOXICITY (% of vehicle control) Mean (CHO‐hSGLT1/2 cells) | activity (SGLT1; mean) [%] | remaining activity at 5 µM (hSGLT2; mean, concentration not given) [%] | remaining activity at 50 µM (hSGLT2; mean, concentration not given) [%] | remaining activity at 5 µM (SGLT1; mean, concentration not given) [%] | remaining activity at 50 µM (SGLT1; mean, concentration not given) [%] | CYTOTOXICITY (CHO‐hSGLT1/2 cells) | also measured |
| --- | --- | --- | --- | --- | --- | --- | --- | --- | --- | --- |
| COc1ccc(CCN(C)CCCC(C#N)(c2ccc(OC)c(OC)c2)C(C)C)cc1OC (stereo not drawn) [verapamil] |  |  |  |  |  |  |  |  |  | INHIBITED TRANSPORTERS (transporters): SLC6A4, SLC22A1, SLC22A4, SLC22A5 |
| COc1ccc(-c2coc3cc(O[C@@H]4O[C@H](CO)[C@@H](O)[C@H](O)[C@H]4O)c(OC)cc3c2=O)cc1 [wistin] | 98 | 1.0 | -51 % of vehicle control | 99 |  |  |  |  |  | Cytotoxicity (percentage of bioluminescence of DMSO vehicle control, set at 0%) (CHO‐hSGLT1/2 cells; CHO‐SGLT1 and CHO‐SGLT2 data combined, ≥20% considered toxic): −51% |
| CCCCN1CCCCC1C(=O)Nc1c(C)cccc1C (stereo not drawn) [Bupivacaine HCl monohydrate] |  |  |  |  | 72 | 50 | 68 | 36 |  | CY[…] 50 mM (CHO‐hSGLT1/2 cells): -2.27 |
| Cc1nc2sccn2c(=O)c1CCN1CCC(=C(c2ccc(F)cc2)c2ccc(F)cc2)CC1 [ritanserin, reference compound] |  |  |  |  | 64 | 15 | 76 | 44 | -5.28 | SGLT2/SGLT1‐50μmol/L (ratio of SGLT2 to SGLT1 activities with 50 μmol/L inhibitor) (SGLT1): 0.3 |
| Oc1cc(O)cc(/C=C/c2ccc(O)cc2O)c1 [Oxyresveratrol] |  |  |  |  | 109 | 115 | 105 | 123 | -89 |  |
| C[C@@H]1O[C@@H](O[C@H]2[C@H](O[C@H]3CC[C@]4(C)[C@H]5CC=C6[C@@H]7CC(C)(C)CC[C@]7(C(=O)O)CC[C@@]6(CO)[C@]5(C)CC[C@H]4C3(C)C)OC[C@H](O[C@@H]3O[C@H](CO)[C@@H](O)[C@H](O)[C@H]3O)[C@@H]2O)[C@H](O)[C@H](O)[C@H]1O [Raddeanoside 20] |  |  |  |  | 116 | 116 | 103 | 99 | -24 |  |
| COC(=O)C(c1ccccc1Cl)N1CCc2sccc2C1 (stereo not drawn) [Clopidogrelum, clopidogrel] |  |  |  |  |  |  |  |  |  | SGLT2/SGLT1 ACTIVITY RATIO (hSGLT2): 1.1 and 1.0; remaining activity at 5 µM (hSGLT2): 95%; remaining activity at 50 µM (hSGLT2): 60%; CY[…] 50 mM (CHO‐hSGLT1/2 cells): -9; remaining activity at 5 µM (SGLT1): 96%; remaining activity at 50 µM (SGLT1): 54% |
| CCN(CC)CCOC(=O)C1(c2ccccc2)CCCC1 [Caramiphen HCl] | 88 | 0.9 | -5.41 % of vehicle control | 101 |  |  |  |  |  |  |
| Oc1cc(O)cc(/C=C/c2ccccc2)c1 [Pinosylvin] |  |  |  |  | 97 | 117 | 98 | 155 | -71 |  |
| CCN(CC)CCOC(=O)C(c1ccccc1)c1ccccc1 [Adiphenine HCl] | 113 | 1.0 |  | 108 |  |  |  |  |  | CY[…] (% of vehicle control) Mean (CHO‐hSGLT1/2 cells): -16 % of vehicle control |
| CCC(C)C(=O)O[C@H]1[C@H](OC(C)=O)c2c(ccc3ccc(=O)oc23)OC1(C)C (stereo partly drawn) [peucedanocoumarin I] | 102 | 1.1 | 4.22 % of vehicle control | 95 |  |  |  |  |  | SGLT2/SGLT1‐50μmol/L (ratio of SGLT2 to SGLT1 activities with 50 μmol/L inhibitor) (SGLT1): 2 |
| CC(=O)OC1c2c(ccc3ccc(=O)oc23)OC(C)(C)C1OC(=O)C=C(C)C (stereo not drawn) [Samidin] | 94 | 1.1 | -10 % of vehicle control | 85 |  |  |  |  |  |  |
| COC(=O)[C@@]1(C)CC[C@]2(C(=O)O[C@@H]3O[C@H](CO)[C@@H](O)[C@H](O)[C@H]3O)CC[C@]3(C)C(=CC[C@@H]4[C@@]5(C)C[C@H](O)[C@H](O[C@@H]6OC[C@@H](O[C@@H]7O[C@H](CO)[C@@H](O)[C@H](O)[C@H]7O)[C@H](O)[C@H]6O)[C@@](C)(CO)[C@@H]5CC[C@]43C)[C@@H]2C1 [Esculentoside H] |  |  |  |  | 120 | 112 | 104 | 102 | -13 |  |

— PMC6664820, “Novel natural and synthetic inhibitors of solute carriers SGLT1 and SGLT2” (Pharmacology Research & Perspectives, 2019)
